{"source": "ChEMBL document CHEMBL1201862", "about": "“PubChem BioAssay data set” (2004)", "key": {"[1]": {"biological_target": "Tyrosine-protein phosphatase non-receptor type 12 (Homo sapiens, UniProt Q05209)", "sequence (Q05209 whole entry)": "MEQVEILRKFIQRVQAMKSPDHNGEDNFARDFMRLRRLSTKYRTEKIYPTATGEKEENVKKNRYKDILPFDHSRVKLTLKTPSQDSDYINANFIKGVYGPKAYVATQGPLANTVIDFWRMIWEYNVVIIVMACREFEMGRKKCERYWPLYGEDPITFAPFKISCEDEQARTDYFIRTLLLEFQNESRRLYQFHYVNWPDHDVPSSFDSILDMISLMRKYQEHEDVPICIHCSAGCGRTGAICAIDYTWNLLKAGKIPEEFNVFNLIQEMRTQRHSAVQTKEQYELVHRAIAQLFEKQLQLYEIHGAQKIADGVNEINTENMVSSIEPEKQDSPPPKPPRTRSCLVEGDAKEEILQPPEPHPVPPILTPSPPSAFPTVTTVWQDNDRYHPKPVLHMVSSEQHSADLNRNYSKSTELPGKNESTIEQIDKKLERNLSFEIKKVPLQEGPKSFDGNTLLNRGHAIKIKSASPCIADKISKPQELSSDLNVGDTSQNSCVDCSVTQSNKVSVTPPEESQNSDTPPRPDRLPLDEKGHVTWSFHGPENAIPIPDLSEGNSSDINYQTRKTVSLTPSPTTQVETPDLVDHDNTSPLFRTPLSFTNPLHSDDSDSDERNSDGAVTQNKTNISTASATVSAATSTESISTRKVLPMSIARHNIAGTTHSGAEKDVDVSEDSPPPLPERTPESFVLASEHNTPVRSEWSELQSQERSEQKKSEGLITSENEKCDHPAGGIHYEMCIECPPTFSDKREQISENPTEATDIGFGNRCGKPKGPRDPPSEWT", "assay": "SAR Selectivity Analysis of small molecule inhibitors of PEST using pCAP in a fluorescence assay. [Related pubchem assays (depositor defined):AID1779, AID1784, AID2135]", "format": "functional"}, "[2]": {"biological_target": "T1, Tyrosine-protein phosphatase non-receptor type 22 (Homo sapiens, UniProt Q9Y2R2)", "T1 sequence (Q9Y2R2 whole entry)": "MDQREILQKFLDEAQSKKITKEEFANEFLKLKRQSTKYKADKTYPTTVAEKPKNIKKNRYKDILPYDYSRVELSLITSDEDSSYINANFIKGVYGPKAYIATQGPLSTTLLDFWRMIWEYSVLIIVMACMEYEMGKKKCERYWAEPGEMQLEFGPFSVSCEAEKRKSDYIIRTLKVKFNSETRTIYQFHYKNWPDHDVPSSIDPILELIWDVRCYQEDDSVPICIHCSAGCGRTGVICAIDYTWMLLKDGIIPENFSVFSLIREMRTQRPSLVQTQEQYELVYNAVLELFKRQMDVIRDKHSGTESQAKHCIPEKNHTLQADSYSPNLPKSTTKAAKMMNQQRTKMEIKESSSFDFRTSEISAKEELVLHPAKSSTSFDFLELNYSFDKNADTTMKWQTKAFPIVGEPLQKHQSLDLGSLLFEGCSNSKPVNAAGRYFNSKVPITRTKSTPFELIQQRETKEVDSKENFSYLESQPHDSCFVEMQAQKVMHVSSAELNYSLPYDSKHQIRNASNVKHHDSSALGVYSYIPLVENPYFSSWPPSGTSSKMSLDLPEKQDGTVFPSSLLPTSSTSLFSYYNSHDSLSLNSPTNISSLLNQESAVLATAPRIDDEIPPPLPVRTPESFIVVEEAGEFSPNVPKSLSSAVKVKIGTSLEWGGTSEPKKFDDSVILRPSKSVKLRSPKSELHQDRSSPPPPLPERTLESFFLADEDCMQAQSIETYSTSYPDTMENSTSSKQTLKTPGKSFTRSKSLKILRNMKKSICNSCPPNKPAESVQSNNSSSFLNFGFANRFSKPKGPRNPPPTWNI", "assay": "SAR LYP1 Fluorescent Assay using OMFP substrate for In Vitro dose response studies - Set 3. [Related pubchem assays (depositor defined):AID1779, AID1784, AID2140, AID2686]", "format": "functional"}, "[3]": {"biological_target": "T2, Tyrosine-protein phosphatase non-receptor type 7 (Homo sapiens, UniProt P35236)", "T2 sequence (P35236 whole entry)": "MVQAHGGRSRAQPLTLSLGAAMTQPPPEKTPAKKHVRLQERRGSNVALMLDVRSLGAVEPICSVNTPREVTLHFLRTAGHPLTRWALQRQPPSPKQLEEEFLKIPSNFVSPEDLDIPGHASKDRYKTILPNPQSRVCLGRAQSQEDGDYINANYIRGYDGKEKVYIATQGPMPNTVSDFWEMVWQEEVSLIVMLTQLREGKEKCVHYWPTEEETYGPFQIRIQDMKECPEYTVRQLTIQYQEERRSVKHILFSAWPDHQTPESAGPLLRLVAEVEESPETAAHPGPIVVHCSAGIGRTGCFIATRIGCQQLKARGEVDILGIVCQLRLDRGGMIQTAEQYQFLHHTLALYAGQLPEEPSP", "assay": "redox-dependent HePTP inhibition, mechanism study, biochemical, fluorescence (AID 2068)", "format": "functional"}, "[4]": {"biological_target": "T2, Tyrosine-protein phosphatase non-receptor type 7", "assay": "HePTP (PTPN7) phosphatase inhibitor potency, SAR follow-up, biochemical, set 2 (AID 449736)", "format": "functional"}, "[5]": {"biological_target": "T1, Tyrosine-protein phosphatase non-receptor type 22", "assay": "LYP (PTPN22) phosphatase inhibitor potency, SAR follow-up, biochemical, pCAP fluorogenic substrate, fluorescence, set 3 (AID 449727)", "format": "functional"}, "[6]": {"biological_target": "Dual specificity protein phosphatase 3 (Homo sapiens, UniProt P51452)", "sequence (P51452 whole entry)": "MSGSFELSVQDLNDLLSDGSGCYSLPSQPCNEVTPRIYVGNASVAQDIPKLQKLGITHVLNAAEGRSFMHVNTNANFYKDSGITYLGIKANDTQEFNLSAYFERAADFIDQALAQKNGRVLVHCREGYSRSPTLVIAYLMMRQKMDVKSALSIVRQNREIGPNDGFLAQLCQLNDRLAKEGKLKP", "assay": "SAR VHR1 Fluorescent Assay for In Vitro dose response studies Set 2. [Related pubchem assays (depositor defined):AID1654, AID1661, AID1878]", "format": "functional"}, "[7]": {"biological_target": "T3, Dual specificity protein phosphatase 6 (Rattus norvegicus, UniProt Q64346)", "T3 sequence (Q64346 whole entry)": "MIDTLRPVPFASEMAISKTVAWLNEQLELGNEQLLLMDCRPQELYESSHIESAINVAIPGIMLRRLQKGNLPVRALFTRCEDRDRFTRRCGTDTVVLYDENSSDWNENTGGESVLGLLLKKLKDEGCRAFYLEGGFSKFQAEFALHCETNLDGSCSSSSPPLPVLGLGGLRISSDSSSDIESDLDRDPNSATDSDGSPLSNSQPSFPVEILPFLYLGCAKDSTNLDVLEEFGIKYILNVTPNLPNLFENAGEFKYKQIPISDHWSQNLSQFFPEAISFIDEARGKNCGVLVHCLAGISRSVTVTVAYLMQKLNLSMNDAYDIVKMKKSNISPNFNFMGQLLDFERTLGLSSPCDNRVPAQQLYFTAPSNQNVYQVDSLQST", "format": "functional"}, "[8]": {"system": "HeLa", "assay": "HeLa cell cytotoxicity, dose response, cytotoxicity control for MITF activator project, CellTiter-Glo luminescence, cherry-pick samples (AID 540259)", "format": "functional, cell-based", "settings": "Homo sapiens"}, "[9]": {"assay": "NIH-3T3 fibroblast cytotoxicity, dose response, cytotoxicity control, cell-based, fluorescence, Alamar Blue, secondary assay (AID 2327);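 further: NIH-3T3 mouse fibroblasts cultured with fluconazole at 8 µg/mL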", "format": "functional"}, "[10]": {"assay": "C. albicans growth with fluconazole, confirmation, fluorescence, retest (AID 2467)", "format": "functional, cell-based"}, "[11]": {"assay": "inhibitors of intracellular T. cruzi replication, confirmation, NIH3T3 host cells, beta-gal luminescence (AID 2044);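 further: luminescent beta-galactosidase reporter signal from transgenic T. cruzi replicating inside host cells; inhibitors lower the luminescence signal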", "format": "functional, cell-based"}, "[12]": {"assay": "cytotoxicity toward NIH3T3 fibroblasts, dose response, counter-screen, cell-based, ATP luminescence, mouse fibroblasts (AID 2010);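 further: cells exposed to compound for about 90 hours before reading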", "format": "functional"}, "[13]": {"system": "Jurkat", "assay": "antigen receptor-induced NF-kB inhibitors, dose response, Jurkat, luciferase reporter, luminescence, B- and T-cell (AID 489004);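 further: NF-kB luciferase reporter Jurkat cells stimulated with PMA plus ionomycin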", "format": "functional, cell-based", "settings": "Homo sapiens"}, "[14]": {"assay": "cytotoxicity in HEK-293T NF-kB-Luc cells, dose response, cytotoxicity control for B/T-cell NF-kB inhibitor project, cell-based, uHTS hits (AID 489019);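 further: IC50 reflects cytotoxicity as loss of cell viability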", "format": "functional"}, "[15]": {"biological_target": "Voltage-gated inwardly rectifying potassium channel KCNH2 (Homo sapiens, UniProt Q12809)", "sequence (Q12809 whole entry)": "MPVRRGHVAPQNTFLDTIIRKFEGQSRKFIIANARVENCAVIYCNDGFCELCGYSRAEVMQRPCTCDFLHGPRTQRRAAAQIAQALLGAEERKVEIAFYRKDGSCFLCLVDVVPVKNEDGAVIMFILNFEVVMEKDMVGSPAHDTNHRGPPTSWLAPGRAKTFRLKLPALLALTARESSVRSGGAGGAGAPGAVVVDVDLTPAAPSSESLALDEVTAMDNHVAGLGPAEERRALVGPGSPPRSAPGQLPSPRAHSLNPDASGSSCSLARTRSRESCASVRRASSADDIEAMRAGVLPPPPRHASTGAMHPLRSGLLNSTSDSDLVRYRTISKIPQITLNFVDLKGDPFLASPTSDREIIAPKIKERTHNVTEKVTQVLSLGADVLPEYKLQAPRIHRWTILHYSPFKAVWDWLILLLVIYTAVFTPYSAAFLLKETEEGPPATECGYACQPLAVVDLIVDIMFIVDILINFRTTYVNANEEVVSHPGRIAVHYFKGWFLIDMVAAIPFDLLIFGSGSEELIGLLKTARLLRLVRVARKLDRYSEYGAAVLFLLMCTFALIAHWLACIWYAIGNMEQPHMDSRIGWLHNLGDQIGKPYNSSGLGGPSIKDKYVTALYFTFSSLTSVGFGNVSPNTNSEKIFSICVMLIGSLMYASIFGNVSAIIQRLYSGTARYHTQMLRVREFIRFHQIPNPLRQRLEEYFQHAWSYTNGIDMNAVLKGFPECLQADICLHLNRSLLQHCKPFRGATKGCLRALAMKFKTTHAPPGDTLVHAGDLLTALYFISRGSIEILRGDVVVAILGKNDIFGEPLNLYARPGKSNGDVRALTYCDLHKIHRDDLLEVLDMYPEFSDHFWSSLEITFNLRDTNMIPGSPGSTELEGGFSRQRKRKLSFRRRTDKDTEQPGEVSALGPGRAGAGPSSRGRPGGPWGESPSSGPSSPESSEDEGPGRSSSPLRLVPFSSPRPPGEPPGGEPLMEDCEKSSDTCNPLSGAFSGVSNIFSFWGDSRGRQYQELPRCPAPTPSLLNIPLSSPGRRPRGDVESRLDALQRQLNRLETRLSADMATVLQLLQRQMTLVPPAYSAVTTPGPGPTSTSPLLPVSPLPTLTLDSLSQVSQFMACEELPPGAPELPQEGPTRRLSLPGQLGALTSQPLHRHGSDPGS", "settings": "Potency"}}, "note": "The source made the active and inactive calls."}
{"compound": "CCOc1cc(/C=C2/S/C(=N\\c3ccccc3)NC2=O)cc(I)c1OCC(=O)O", "values": [{"measurement": "IC50", "setting": "[1]", "value": "7.6 µM (active)"}, {"measurement": "IC50", "setting": "[2]", "value": "56.6 µM (active)"}, {"measurement": "IC50", "setting": "[3]", "value": "6.03 µM (active)"}, {"measurement": "IC50", "setting": "[4]", "value": "2.33 µM (active)"}, {"measurement": "IC50", "setting": "[5]", "value": "30.2 µM (active)"}, {"measurement": "IC50", "setting": "[6]", "value": "33.8 µM (active)"}, {"measurement": "IC50", "setting": "[7]", "value": "> 100 µM (inactive)"}]}
{"compound": "CCn1c(C)nc2cc(C(=O)N/N=C(\\C)c3ccccc3O)ccc21", "values": [{"measurement": "AC50", "setting": "[8]", "value": "126 µM (active)"}]}
{"compound": "CN(C)c1ccc(-c2n(C)c3ccccc3[n+]2C)cc1", "values": [{"measurement": "EC50", "setting": "[9]", "value": "> 150 µM (inactive)"}, {"measurement": "EC50", "setting": "[10]", "value": "2.18 µM (active)"}, {"measurement": "EC50", "setting": "[11]", "value": "582 nM (active)"}, {"measurement": "EC50", "setting": "[12]", "value": "18.1 µM (active)"}, {"measurement": "IC50", "setting": "[13]", "value": "> 80 µM (inactive)"}, {"measurement": "IC50", "setting": "[14]", "value": "> 80 µM (inactive)"}]}
{"compound": "NC(=S)NCCCC(N)C(=O)O", "note": "(stereo not given)", "values": [{"measurement": "AC50", "setting": "[15]", "value": "35.5 µM (inconclusive)"}]}
